What was measured:
[1] = Inhibition of RML prion protein infected in mouse dividing ScN2a-cl3 cells expressing full length mouse PrP assessed as reduction of PrPsc level after 5 days by Western blotting analysis; assay type: cell-based; details: N2a-cl3, 120 h
cells = assay type: cell-based; details: Mus musculus, N2a-cl3, 120 h
[2] = Cmax in FVB mouse plasma at 10 mg/kg, po qd; assay type: ADME, organism-based; set-up: dose 10 mg/kg, route oral
[3] = AUClast in FVB mouse plasma at 10 mg/kg, po qd; assay type: ADME, organism-based; set-up: time 0 - last, dose 10 mg/kg, route oral
[4] = AUClast in FVB mouse brain at 10 mg/kg, po qd; assay type: ADME, organism-based; set-up: time 0 - last, dose 10 mg/kg, route oral
[5] = Ratio of AUClast in FVB mouse brain to FVB mouse plasma; assay type: ADME; details: read-out: Ratio AUC
N2a-cl3 [6] = assay: Inhibition of RML prion protein infected in mouse dividing ScN2a-cl3 cells expressing full length mouse PrP assessed as reduction of PrPsc level at 10 uM after 5 days by ELISA; assay type: cell-based
N2a-cl3 [7] = assay: Inhibition of RML prion protein infected in mouse stationary-phase ScN2a-cl3 cells expressing full length mouse PrP assessed as reduction of PrPsc level at 10 uM after 5 days by ELISA; assay type: cell-based
in vitro = details: mouse, dividing ScN2a-cl3 cells
[8] = Cytotoxicity against mouse stationary-phase ScN2a-cl3 cells assessed as cell viability after 5 days by calcein-AM staining-based fluorescence assay; set-up: species or system N2a-cl3; details: read-out: LC50
[9] = Inhibition of RML prion protein infected in mouse stationary-phase ScN2a-cl3 cells expressing full length mouse PrP assessed as reduction of PrPsc level after 5 days; assay type: cell-based; details: N2a-cl3, 120 h

SMILES	EC50 [1]	EC50 (cells)	inhibition (N2a-cl3 [6])	inhibition (N2a-cl3 [7])	further results
COc1ccc(-c2nc3cc(NC(=O)c4ccc(OCc5ccccc5)cc4)ccc3o2)cc1	2570 nM	70 nM	–	–	–
N#Cc1sc2nc(-c3ccc4c(c3)OCO4)ccc2c1N	520 nM	980 nM	–	–	Cmax [2]: 130 nM; AUC(0-t) [3]: 1.56 µM·h; AUC(0-t) [4]: 7.36 µM·h; Kp [5]: 4.72
O=C(Nc1ccc(Cl)cc1)Nc1ccc(C(F)(F)F)cc1Cl	–	–	17%	63%	–
N#Cc1ccc(/C=C/c2ccc(F)cc2)cc1	530 nM	1520 nM	–	–	–
COc1cc(CN2CCN(c3cccc(C)c3C)CC2)cc(Br)c1O	–	–	22%	48%	–
CC(=O)c1ccc(N2CCN(Cc3cccc(Cl)c3)CC2)cc1	–	–	84%	31%	–
COc1ccccc1OCCNCC(O)COc1cccc2[nH]c3ccccc3c12 (stereo not drawn) [CARVEDILOL]	–	2280 nM	–	–	–
Cn1c(=N)n(CC(=O)c2ccc(Cl)cc2)c2ccccc21	4970 nM	7320 nM	–	–	–
CC(=O)c1ccc(N2CCN(Cc3cccc(Br)c3)CC2)cc1	–	–	67%	39%	–
Nc1c(C(=O)Nc2cc(F)ccc2F)sc2nc(-c3ccncc3)ccc12	–	2220 nM	–	–	CC50 at 120 h (in vitro): > 10000 nM
COc1ccc(-c2cc(-c3ccc(C)cc3O)[nH]n2)cc1	120 nM	260 nM	–	–	–
COc1cccc(Nc2nc(N)c3ccccc3n2)c1	5990 nM	4020 nM	–	–	–
COc1ccc(-c2ccc3c(N)c(C(=O)Nc4ccc(OC)c(OC)c4)sc3n2)cc1	–	> 10000 nM	–	–	CC50 at 120 h (in vitro): > 10000 nM
CCc1ccc(-c2cn3cc(C)sc3n2)cc1	520 nM	1780 nM	–	–	–
CC(=O)c1ccc(N2CCN(Cc3c(C)n(C)n(-c4ccccc4)c3=O)CC2)cc1	–	–	64%	35%	–
CNCCc1c(-c2ccccc2)n(-c2ccccc2)c2ccccc12	–	–	81%	46%	–
O=C(Nc1ccc(F)c(Cl)c1)Nc1ccc(Cl)c(Cl)c1	–	–	92%	61%	–
Cc1ccc2[nH]c3c(c2c1)CCCC3NCCCN(C)C (stereo not drawn)	–	1580 nM	88%	94%	CC50 at 120 h (in vitro): > 10000 nM; CC50 at 120 h [8]: > 10000 nM; EC50 [9]: 7500 nM
CCOc1ccc(NC(=O)c2cc3ccccc3cc2O)cc1	40 nM	130 nM	–	–	–
COc1ccc(CNC(=O)c2sc3nc(-c4cccs4)ccc3c2N)cc1	–	1830 nM	–	–	CC50 at 120 h (in vitro): > 10000 nM
CCc1ccc(-c2cn3ccccc3n2)cc1	4720 nM	9160 nM	–	–	–
CC(=O)c1ccc(N2CCN(CC(C)CCC=C(C)C)CC2)cc1 (stereo not drawn)	–	–	78%	55%	–
Cc1ccc2[nH]c3c(c2c1)CCCC3NC1CCCCC1 (stereo not drawn)	–	–	27%	48%	–
O=C(Nc1ccc(Cl)c(Cl)c1)NC(CC(=O)c1ccc([N+](=O)[O-])cc1)C(Cl)(Cl)Cl (stereo not drawn)	–	–	83%	61%	–

SMILES	EC50 [1]	EC50 (cells)	inhibition (N2a-cl3 [6])	inhibition (N2a-cl3 [7])	further results
O=C(Nc1ccccc1)Nc1ccc(F)c(Cl)c1	–	–	87%	56%	–
Nc1c(C(=O)Nc2ccc(F)cc2)sc2nc(-c3ccc4c(c3)OCO4)ccc12	–	750 nM	–	–	CC50 at 120 h (in vitro): > 10000 nM
Cc1[nH]c2ccccc2c1-c1csc(-c2cccnc2)n1	1700 nM	3130 nM	–	–	–
O=C(Nc1ccc(Cl)cc1)Nc1ccc(Cl)c(F)c1	–	–	25%	66%	–
COc1ccc2cc3c(N)c(C(=O)Nc4ccc(C(C)=O)cc4)sc3nc2c1	60 nM	80 nM	–	–	CC50 at 120 h (in vitro): > 10000 nM
O=C(Nc1ccc(Br)cc1)Nc1cc(Cl)cc(Cl)c1	–	–	91%	51%	–
COc1cc(N)c(-c2ccc3cc(OC)c(OC)cc3n2)cc1OC	1830 nM	2560 nM	–	–	–
c1ccc2cc(-c3cn4ccsc4n3)ccc2c1	2490 nM	6020 nM	–	–	–
COc1ccc2[nH]c3c(OC)ncnc3c2c1	–	–	81%	37%	–
COc1ccc(-c2ccc3c(N)c(C(=O)Nc4ccc(F)cc4)sc3n2)cc1	–	140 nM	–	–	CC50 at 120 h (in vitro): > 10000 nM
OCCNCc1cc(Br)ccc1OCc1ccc(Cl)cc1Cl	1990 nM	4300 nM	–	–	–
CC(=O)c1ccc(NC(=O)c2sc3nc(-c4cccs4)ccc3c2N)cc1	–	100 nM	–	–	CC50 at 120 h (in vitro): > 10000 nM
COc1ccc(-c2ccc3c(N)c(C(=O)Nc4cc(OC)c(OC)c(OC)c4)sc3n2)cc1	–	420 nM	–	–	CC50 at 120 h (in vitro): > 10000 nM
Cc1ccc2c(c1)c1c(n2CC(O)CO)C(=O)CCC1 (stereo not drawn)	–	–	14%	39%	–
CN1C[C@H](C(=O)N[C@]2(C)O[C@@]3(O)[C@@H]4CCCN4C(=O)[C@H](Cc4ccccc4)N3C2=O)C[C@@H]2c3cccc4[nH]cc(c34)C[C@H]21 [DIHYDROERGOTAMINE]	–	6440 nM	–	–	CC50 at 120 h (in vitro): > 10000 nM
COc1ccc(-c2cc(-c3ccc(OC)cc3O)[nH]n2)cc1	100 nM	70 nM	–	–	–
CCN1CCN(c2ccc(Nc3ccnc4cc5ccccc5cc34)cc2)CC1	–	–	76%	51%	–
CC(=O)c1ccc(NC(=O)c2sc3nc4c(cc3c2N)CCCC4)cc1	–	> 10000 nM	–	–	CC50 at 120 h (in vitro): > 10000 nM
COc1cc(CNCCO)cc(Br)c1OCc1ccccc1Cl	2740 nM	4830 nM	–	–	–
CN1CCc2cccc3c2[C@H]1Cc1ccc(O)c(O)c1-3 [APOMORPHINE]	–	> 10000 nM	–	–	CC50 at 120 h (in vitro): > 10000 nM
Nc1c(/N=N/c2ccc(-c3ccc(/N=N/c4cc(S(=O)(=O)O)c5ccccc5c4N)cc3)cc2)cc(S(=O)(=O)O)c2ccccc12 [CONGO RED]	–	450 nM	–	–	CC50 at 120 h (in vitro): > 10000 nM
CC(=O)c1ccc2c(c1)N(CCCN(C)C)c1ccccc1S2 [ACEPROMAZINE]	–	6930 nM	–	–	CC50 at 120 h (in vitro): > 10000 nM
CC(=O)c1ccc(N2CCN(Cc3ccc(F)cc3F)CC2)cc1	–	–	85%	30%	–
CC(=O)c1ccc(N2CCN(Cc3ccccc3Cl)CC2)cc1	–	–	86%	41%	–

SMILES	EC50 [1]	EC50 (cells)	inhibition (N2a-cl3 [6])	inhibition (N2a-cl3 [7])	further results
COc1ccc2cc1Oc1ccc(cc1)C[C@H]1c3cc(c(OC)cc3CCN1C)Oc1c(OC)c(OC)cc3c1[C@H](C2)N(C)CC3 [FANCHININ]	–	2150 nM	–	–	CC50 at 120 h (in vitro): 5010 nM
COc1ccc(-c2ccc3c(N)c(C(=O)Nc4cc(F)ccc4F)sc3n2)cc1	–	> 10000 nM	–	–	CC50 at 120 h (in vitro): > 10000 nM
Cn1c(=N)n(CC(=O)c2ccc(Br)cc2)c2ccccc21	1450 nM	2580 nM	–	–	–
CC(=O)c1ccc(N2CCN(Cc3cccnc3)CC2)cc1	890 nM	–	–	–	–
Clc1ccc(N2CCN(C3CCSC3)CC2)cc1 (stereo not drawn)	–	–	42%	51%	–
COc1ccc(CCNC(=O)c2sc3nc(-c4cccs4)ccc3c2N)cc1OC	–	> 10000 nM	–	–	CC50 at 120 h (in vitro): > 10000 nM
CN(C)CCNc1nc(-c2ccc(Cl)cc2)nc2ccccc12	2010 nM	2650 nM	–	–	–
CC(=O)c1ccc(N2CCN(Cc3ccc(Br)s3)CC2)cc1	–	–	97%	34%	–
CCc1ccc(-c2cn3cc(C)ccc3n2)cc1	290 nM	710 nM	–	–	–
O=C(Nc1nc(-c2ccc3ccccc3c2)cs1)C1CC1	570 nM	990 nM	–	–	–
Cc1ccc2[nH]c3c(c2c1)CCCC3NCC12CC3CC(CC(C3)C1)C2 (stereo not drawn)	–	–	98%	53%	–
COc1ccc(-c2ccc3c(N)c(C(=O)Nc4ccc(SC)cc4)sc3n2)cc1	–	290 nM	–	–	CC50 at 120 h (in vitro): > 10000 nM
CN1CCN(c2ccc(Nc3ccnc4cc(Cl)ccc34)cc2)CC1	2070 nM	1360 nM	–	–	Cmax [2]: 410 nM; AUC(0-t) [3]: 0.82 µM·h; AUC(0-t) [4]: 2.12 µM·h; Kp [5]: 2.59
CCOc1ccc(/N=N/c2ccc(N)cc2N)cc1 [ETHOXAZENE]	–	4760 nM	–	–	CC50 at 120 h (in vitro): > 10000 nM
COc1ccc(CN2CCN(c3ccc(C(C)=O)cc3)CC2)c(C)c1C	–	–	95%	41%	–
CC(=O)c1ccc(N2CCN(Cc3ccccc3)CC2)cc1	620 nM	710 nM	–	–	–
Nc1c(C(=O)Nc2ccc3c(c2)OCCO3)sc2nc(-c3cccs3)ccc12	–	420 nM	–	–	CC50 at 120 h (in vitro): > 10000 nM
Oc1ccc(/C=C/c2cc(O)cc(O)c2)cc1 [RESVERATROL]	580 nM	3060 nM	–	–	–
COc1ccc(-c2ccc3c(N)c(C(=O)Nc4ccc(F)cc4)sc3n2)cc1OC	–	240 nM	–	–	CC50 at 120 h (in vitro): > 10000 nM
c1cncc(-c2nc(-c3c[nH]c4ccccc34)cs2)c1	830 nM	270 nM	–	–	–
COc1ccc(C(=O)Nc2ccc(-c3csc(C)n3)cc2)cc1	160 nM	400 nM	–	–	–
O=C(Nc1nc(-c2ccc(-c3ccccc3)cc2)cs1)C1CC1	190 nM	250 nM	–	–	–
CCOc1ccc(C(=O)Nc2ccc3oc(-c4ccc(OC)cc4)nc3c2)cc1	130 nM	60 nM	–	–	–

Reference: ChEMBL document CHEMBL3091297, “Antiprion compounds that reduce PrP(Sc) levels in dividing and stationary-phase cells” (Bioorg Med Chem, 2013)
